The record followed here is patent US11661426B2, “Imidazole-containing inhibitors of ALK2 kinase” (BioCryst Pharmaceuticals, Inc., priority 2017, dated 2023).

pIC50: −log10 of the molar value.

The term pIC50 denotes −log10 of the IC50, conventionally taken in molar units.

The target in this test is ALK2 (Homo sapiens (Human), UniProt Q04771). Nature of the test: ALK2 inhibition, LanthaScreen Eu Kinase Binding Assay (ThermoFisher Scientific / Life Technologies). As to conditions: read-out: Measured Ki (IC50) Value for Compounds: IC50. As to the method: Biochemical assays to measure the inhibitory effects of the compounds were performed by ThermoFisher Scientific (Life Technologies). ALK2 inhibition was tested using LanthaScreen™ Eu Kinase Binding Assay screening protocol.
Sequence of ALK2 (Q04771 21-509): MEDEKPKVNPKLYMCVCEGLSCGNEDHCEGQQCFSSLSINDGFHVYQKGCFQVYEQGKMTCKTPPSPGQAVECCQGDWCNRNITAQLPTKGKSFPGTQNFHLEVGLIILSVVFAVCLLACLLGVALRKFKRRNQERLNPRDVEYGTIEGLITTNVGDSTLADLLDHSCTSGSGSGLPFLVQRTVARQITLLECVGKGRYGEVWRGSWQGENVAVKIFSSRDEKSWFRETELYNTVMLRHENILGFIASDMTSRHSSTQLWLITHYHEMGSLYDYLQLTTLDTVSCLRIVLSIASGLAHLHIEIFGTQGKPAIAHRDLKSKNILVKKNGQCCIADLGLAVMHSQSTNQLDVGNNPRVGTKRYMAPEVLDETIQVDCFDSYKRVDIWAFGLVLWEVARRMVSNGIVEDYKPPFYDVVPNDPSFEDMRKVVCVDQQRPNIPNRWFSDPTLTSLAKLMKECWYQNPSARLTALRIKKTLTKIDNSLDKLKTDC
(TR-FRET usually uses a lanthanide donor and a delayed reading to cut background.)
For the molecule `c1ccc(C2CCCN2c2nc(Nc3cn(C4CCC4)cn3)c3cccn3n2)nc1` (centres unmarked) [Compound 37c, N-(1-cyclobutyl-1H-imidazol-4-yl)-2-(2-(pyridin-2-yl)pyrrolidin-1-yl)pyrrolo[2,1-f][1,2,4]triazin-4-amine], the pIC50 is more than 7.00. Turning to `OC[C@@H]1CCCN1c1nc(Nc2cn(-c3cnc4ccccc4c3)cn2)c2cccn2n1` [Compound 38c, (S)-(1-(4-((1-(quinolin-3-yl)-1H-imidazol-4-yl)amino)pyrrolo[2,1-f][1,2,4]triazin-2-yl)pyrrolidin-2-yl)methanol], the pIC50 was more than 7.00.

With `OC[C@@H]1CCCN1c1nc(Nc2cn(-c3cccnc3)cn2)c2cccn2n1` [Compound 39c, (S)-(1-(4-((1-(pyridin-3-yl)-1H-imidazol-4-yl)amino)pyrrolo[2,1-f][1,2,4]triazin-2-yl)pyrrolidin-2-yl)methanol], the pIC50 is more than 7.00.

In the case of `c1ccc(C2CCCN2c2nc(Nc3cn(-c4ccccc4)cn3)c3occc3n2)cc1` (centres unmarked) [Compound 40a, N-(1-phenyl-1H-imidazol-4-yl)-2-(2-phenylpyrrolidin-1-yl)furo[3,2-d]pyrimidin-4-amine], the pIC50 was more than 7.00. The result for `Cc1csc2c(Nc3cn(-c4ccccc4)cn3)nc(N3CCC[C@H]3CO)nc12` [Compound 41c, (S)-(1-(7-methyl-4-((1-phenyl-1H-imidazol-4-yl)amino)thieno[3,2-d]pyrimidin-2-yl)pyrrolidin-2-yl)methanol] reads more than 7.00; that for `Cc1cc2nc(N3CCC[C@H]3CO)nc(Nc3cn(-c4ccc(F)cc4)cn3)c2s1` [Compound 42b, (S)-(1-(4-((1-(4-fluorophenyl)-1H-imidazol-4-yl)amino)-6-methylthieno[3,2-d]pyrimidin-2-yl)pyrrolidin-2-yl)methanol], more than 7.00. The result for `OC[C@@H]1CCCN1c1nc(Nc2cn(C3CCC3)cn2)c2cccn2n1` [Compound 43a, (S)-(1-(4-((1-cyclobutyl-1H-imidazol-4-yl)amino)pyrrolo[2,1-f][1,2,4]triazin-2-yl)pyrrolidin-2-yl)methanol] reads more than 7.00. The result for `OC[C@@H]1CCCN1c1nc(Nc2cn(-c3cccc(F)c3)cn2)c2cccn2n1` [Compound 44c, (S)-(1-(4-((1-(3-fluorophenyl)-1H-imidazol-4-yl)amino)pyrrolo[2,1-f][1,2,4]triazin-2-yl)pyrrolidin-2-yl)methanol] reads more than 7.00. With `COc1cc(F)c(CC(=O)N2CCN(c3nc(Nc4cn(-c5ccccc5)cn4)c4ccsc4n3)CC2)c(F)c1` [Compound 45d, 2-(2,6-difluoro-4-methoxyphenyl)-1-(4-(4-((1-phenyl-1H-imidazol-4-yl)amino)thieno[2,3-d]pyrimidin-2-yl)piperazin-1-yl)ethanone], the pIC50 was 6.00 to 7.00. The result for `c1ccc([C@@H]2CCCN2c2nc(Nc3cn(C4CCCCC4)cn3)c3cccn3n2)cc1` [Compound 46a, (S)—N-(1-cyclohexyl-1H-imidazol-4-yl)-2-(2-phenylpyrrolidin-1-yl)pyrrolo[2,1-f][1,2,4]triazin-4-amine] reads 6.00 to 7.00.

With `CC(=O)c1cccc(-n2cnc(Nc3nc(N4CCC[C@H]4CO)nn4cccc34)c2)c1` [Compound 47c, (S)-1-(3-(4-((2-(2-(hydroxymethyl)pyrrolidin-1-yl)pyrrolo[2,1-f][1,2,4]triazin-4-yl)amino)-1H-imidazol-1-yl)phenyl)ethanone], the pIC50 was more than 7.00. The result for `OC[C@@H]1CCCN1c1nc(Nc2cn(-c3ccc(O)cc3)cn2)c2cccn2n1` [Compound 48c, (S)-4-(4-((2-(2-(hydroxymethyl)pyrrolidin-1-yl)pyrrolo[2,1-f][1,2,4]triazin-4-yl)amino)-1H-imidazol-1-yl)phenol] reads more than 7.00; that for `OC[C@@H]1CCCN1c1nc(Nc2cn(-c3ccc(Cl)cc3)cn2)c2cccn2n1` [Compound 49c, (S)-(1-(4-((1-(4-chlorophenyl)-1H-imidazol-4-yl)amino)pyrrolo[2,1-f][1,2,4]triazin-2-yl)pyrrolidin-2-yl)methanol], more than 7.00. The result for `OC[C@@H]1CCCN1c1nc(Nc2cn(C3CCCC3)cn2)c2cccn2n1` [Compound 50c, (S)-(1-(4-((1-cyclopentyl-1H-imidazol-4-yl)amino)pyrrolo[2,1-f][1,2,4]triazin-2-yl)pyrrolidin-2-yl)methanol] reads more than 7.00; that for `COc1cc(F)c(CC(=O)N2CCN(c3nc(Nc4cn(C)cn4)c4cccn4n3)CC2)c(F)c1` [Compound 51a, 2-(2,6-difluoro-4-methoxyphenyl)-1-(4-(4-((1-methyl-1H-imidazol-4-yl)amino)pyrrolo[2,1-f][1,2,4]triazin-2-yl)piperazin-1-yl)ethanone], 6.00 to 7.00.

In the case of `COc1cc(F)c(CC(=O)N2CCN(c3nc(Nc4cn(-c5ccccc5)cn4)c4cccn4n3)CC2)c(F)c1` [Compound 52a, 2-(2,6-difluoro-4-methoxyphenyl)-1-(4-(4-((1-phenyl-1H-imidazol-4-yl)amino)pyrrolo[2,1-f][1,2,4]triazin-2-yl)piperazin-1-yl)ethanone], the pIC50 was 6.00 to 7.00. The result for `Cn1cnc(Nc2nc(N3CCN(C(=O)Cc4ccccc4)CC3)nn3cccc23)c1` [Compound 53b, 1-(4-(4-((1-methyl-1H-imidazol-4-yl)amino)pyrrolo[2,1-f][1,2,4]triazin-2-yl)piperazin-1-yl)-2-phenylethanone] reads 6.00 to 7.00; that for `CC(C)(C)OC(=O)N1CCN(c2nc(Nc3cn(-c4ccccc4)cn3)c3sccc3n2)CC1` [Compound 54a, tert-butyl 4-(4-((1-phenyl-1H-imidazol-4-yl)amino)thieno[3,2-d]pyrimidin-2-yl)piperazine-1-carboxylate], more than 7.00; that for `COc1ccc(-n2cnc(Nc3nc(N4CCC[C@H]4CO)nn4cccc34)c2)cc1` [Compound 55c, (S)-(1-(4-((1-(4-methoxyphenyl)-1H-imidazol-4-yl)amino)pyrrolo[2,1-f][1,2,4]triazin-2-yl)pyrrolidin-2-yl)methanol], more than 7.00. To `COc1cccc(-n2cnc(Nc3nc(N4CCC[C@H]4CO)nn4cccc34)c2)c1` [Compound 56c, (S)-(1-(4-((1-(3-methoxyphenyl)-1H-imidazol-4-yl)amino)pyrrolo[2,1-f][1,2,4]triazin-2-yl)pyrrolidin-2-yl)methanol] belongs more than 7.00. Turning to `COc1cc(-n2cnc(Nc3nc(N4CCC[C@H]4CO)nn4cccc34)c2)cc(OC)c1OC` [Compound 57c, (S)-(1-(4-((1-(3,4,5-trimethoxyphenyl)-1H-imidazol-4-yl)amino)pyrrolo[2,1-f][1,2,4]triazin-2-yl)pyrrolidin-2-yl)methanol], the negative-log IC50 (pIC50) was more than 7.00. To `OC[C@@H]1CCCN1c1nc(Nc2cn(-c3ccc(F)cc3)cn2)c2sccc2n1` [Compound 58b, (S)-(1-(4-((1-(4-fluorophenyl)-1H-imidazol-4-yl)amino)thieno[3,2-d]pyrimidin-2-yl)pyrrolidin-2-yl)methanol] belongs more than 7.00; to `N#CC1CC(n2cnc(Nc3nc(N4CCCC4c4ccccn4)nn4cccc34)c2)C1` (centres unmarked) [Compound 59c, 3-(4-((2-(2-(pyridin-2-yl)pyrrolidin-1-yl)pyrrolo[2,1-f][1,2,4]triazin-4-yl)amino)-1H-imidazol-1-yl)cyclobutanecarbonitrile], 6.00 to 7.00.
